The values below come from US10465230B2, “Chemiluminescence-based haemostasis assay” (Stichting Katholieke Universiteit, priority 2010, dated 2019).

SMILES strings stand for the structures. Structures can show the parent of a compound that is named as a salt.

Holding throughout (format): biochemical
Assay [1] addresses T1, thrombin (Homo sapiens, UniProt P00734).
T1 construct: allowing factor Xa to convert prothrombin to thrombin
As to the kind of experiment: Chemiluminescent substrate cleavage by purified thrombin (luciferase/ATP luminescence). To be noted: for RLU thrombin: 30 nM thrombin final, instead of plasma, assay as example 1; for RLU thrombin/RLU plasmin: ratio of signal with 30 nM thrombin to signal with 40 nM plasmin. How it is done:
(§1) In a 96-wells plate (final volume 120 μl), the following components were added:
(§2) 10 μl MeO—(CH2CH2O)2-acetyl-beta-Ala-Gly-Arg-aminoluciferin TFA salt (thrombin specific substrate (10 mM)), or pyroGlu-Phe-Lys-aminoluciferin TFA salt (plasmin specific substrate (10 mM))
(§3) 2 μl Luciferase (Sigma, 72 μg/ml),
(§4) 2 μl ATP (Sigma, 0.33 mM),
(§5) 14 μl TRIS/NaCl buffer (50 mM TRIS and 150 mM NaCl, pH 7.4).
(§6) This reaction mixture was mixed, followed by the addition of 4 μl TRIS/NaCl buffer with Ca^2+ to start thrombin generation. Final concentration 16.7 mM. The resultant was mixed rapidly, and thrombin generation was monitored in a Fluostar. The settings of the Fluostar were: 140 cycli of 30 seconds, Gain: Maximum=4095. Prior to measurement, 25 μl reaction mixture was taken from the well having a total volume of 120 μl. This was pipetted in a 384-well multi-titre plate suitable for measuring luminescence. The measurement was started immediately. Luminescence is depicted in Relative luminescence units (RLU).
Various substrates were analyzed using thrombin and plasmin The assay was essentially performed as described in example 1. However, instead of plasma, plasmin or thrombin were added to final concentrations of 30 nM (thrombin) or 40 nM (plasmin).

Assay [2] has as its target plasmin (Homo sapiens, UniProt P00747). Kind of assay: Chemiluminescent substrate cleavage by purified plasmin (luciferase/ATP luminescence). To be noted: for RLU plasmin: 40 nM plasmin final, instead of plasma, assay as example 1. How it is done: as §1, §2, §3, §4, §5, §6
Various substrates were analyzed using thrombin and plasmin The assay was essentially performed as described in example 1. […]

Assay [3] has as its target T1, thrombin. As to the kind of experiment: Chemiluminescent substrate cleavage by purified thrombin (luciferase/ATP luminescence). To be noted: 150 nM thrombin vs 40 nM plasmin in TBS buffer.

Chain of plasmin (P00747 581-810 limits assumed, species assumed): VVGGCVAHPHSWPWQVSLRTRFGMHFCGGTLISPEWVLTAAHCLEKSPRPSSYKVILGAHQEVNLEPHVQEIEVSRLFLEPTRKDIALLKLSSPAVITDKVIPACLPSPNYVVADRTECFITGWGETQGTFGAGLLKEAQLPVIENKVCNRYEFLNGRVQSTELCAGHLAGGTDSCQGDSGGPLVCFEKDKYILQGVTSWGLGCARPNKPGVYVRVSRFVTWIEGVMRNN
Chain of plasmin (P00747 97-580 partner limits assumed, species assumed): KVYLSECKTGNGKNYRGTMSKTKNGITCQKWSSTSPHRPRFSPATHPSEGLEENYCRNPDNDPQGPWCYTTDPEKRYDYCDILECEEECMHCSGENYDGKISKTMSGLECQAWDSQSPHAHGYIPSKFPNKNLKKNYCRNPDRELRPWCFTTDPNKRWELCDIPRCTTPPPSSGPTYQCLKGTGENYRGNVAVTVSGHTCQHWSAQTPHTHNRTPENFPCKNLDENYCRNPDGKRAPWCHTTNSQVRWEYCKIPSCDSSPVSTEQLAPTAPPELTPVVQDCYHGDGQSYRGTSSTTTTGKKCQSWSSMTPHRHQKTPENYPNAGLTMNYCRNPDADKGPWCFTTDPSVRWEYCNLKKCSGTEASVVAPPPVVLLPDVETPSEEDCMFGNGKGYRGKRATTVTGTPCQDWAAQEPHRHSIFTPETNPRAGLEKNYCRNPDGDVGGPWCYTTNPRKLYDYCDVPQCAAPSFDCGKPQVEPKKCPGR

As to `COCCOCCOCCOCCOCC(=O)NC(Cc1ccccc1)C(=O)NC(CCCNC(=N)N)C(=O)Nc1ccc2nc(C3=NC(C(=O)O)CS3)sc2c1.O=C(O)C(F)(F)F` (stereo not drawn) [CH3O—(CH2CH2O)4-acetyl-Phe-Arg-aminoluciferine•TFA], in assay [1], the RLU thrombin stood at 340768 RLU and the “RLU thrombin/RLU plasmin” value was 0.27. Further, the RLU plasmin in assay [2] amounted to 1282351 RLU.
Regarding `COCCOCCOCC(=O)NCCC(=O)NCC(=O)N[C@@H](CCCNC(=N)N)C(=O)Nc1ccc2nc(C3=N[C@@H](C(=O)O)CS3)sc2c1` [MeO—(CH2CH2O)2-acetyl-beta-Ala-Gly-Arg-aminoluciferin TFA salt], in assay [1], the RLU thrombin is on record as 814171 RLU and the “RLU thrombin/RLU plasmin” value was determined as 3.2. Moreover, the RLU plasmin in assay [2] is listed as 251299 RLU.
Regarding `COCCOCCOCC(=O)NC(Cc1ccccc1)C(=O)NC(CCCNC(=N)N)C(=O)Nc1ccc2nc(C3=NC(C(=O)O)CS3)sc2c1.O=C(O)C(F)(F)F` (stereo not drawn) [CH3O—(CH2CH2O)2-acetyl-Phe-Arg-aminoluciferine•TFA], in assay [1], the RLU thrombin came to 300946 RLU and the “RLU thrombin/RLU plasmin” value is recorded as 0.40. Further, in assay [2], the RLU plasmin was 759874 RLU.
For `COCCOCCOCCOCCOCC(=O)NCCC(=O)NCC(=O)N[C@@H](CCCNC(=N)N)C(=O)Nc1ccc2nc(C3=N[C@@H](C(=O)O)CS3)sc2c1.O=C(O)C(F)(F)F` [CH3O—(CH2CH2O)4-acetyl-beta-Ala-Gly-Arg-aminoluciferine•TFA] the same measures were 293198 RLU, 2.2 and 134983 RLU.
Regarding `N=C(N)NCCC[C@H](NC(=O)CNC(=O)CCN)C(=O)Nc1ccc2nc(C3=N[C@@H](C(=O)O)CS3)sc2c1.O=C(O)C(F)(F)F.O=C(O)C(F)(F)F` [H-beta-Ala-Gly-Arg-aminoluciferine•2TFA], in assay [1], the RLU thrombin was determined as 292161 RLU and the “RLU thrombin/RLU plasmin” value is 4.7. In assay [2], the RLU plasmin is listed as 62387 RLU.
For `COCC(=O)NCCC(=O)NCC(=O)N[C@@H](CCCNC(=N)N)C(=O)Nc1ccc2nc(C3=N[C@@H](C(=O)O)CS3)sc2c1.O=C(O)C(F)(F)F` [CH3O-acetyl-beta-Ala-Gly-Arg-aminoluciferine•TFA] the same measures were 925567 RLU, 3.1 and 294631 RLU.
With `NCCCC[C@H](NC(=O)[C@H](Cc1ccccc1)NC(=O)[C@@H]1CCC(=O)N1)C(=O)Nc1ccc2nc(C3=N[C@@H](C(=O)O)CS3)sc2c1` [PyroGlu-Phe-Lys-aminoluciferine•TFA, pyroGlu-Phe-Lys-aminoluciferin TFA salt], in assay [1], the RLU thrombin was 139546 RLU and the “RLU thrombin/RLU plasmin” value is recorded as 0.07. Also, in assay [2] (4 nM plasmin vs 15 nM thrombin in TBS buffer), the “reactivity of thrombin and plasmin on the S2 substrate (FIG. 1b)” value is “more susceptible for their respective enzyme”. The RLU plasmin in assay [2] was 1999875 RLU.
As for `N=C(N)NCCC[C@H](NC(=O)CNC(=O)CNC(=O)OCc1ccccc1)C(=O)Nc1ccc2nc(C3=N[C@@H](C(=O)O)CS3)sc2c1.O=C(O)C(F)(F)F` [Cbz-Gly-Gly-Arg-aminoluciferine•TFA], in assay [1], the RLU thrombin is 771302 RLU and the “RLU thrombin/RLU plasmin” value is reported as 5.3. In addition, the RLU plasmin in assay [2] is on record as 146486 RLU.
As to `COCCOCCOCC(=O)NCCC(=O)NCC(=O)NC(CCCNC(=N)N)C(=O)Nc1ccc2nc(C3=NC(C(=O)O)CS3)sc2c1.O=C(O)C(F)(F)F` (stereo not drawn) [MeO—(CH2CH2O)2-acetyl-beta-Ala-Gly-Arg-aminoluciferin TFA salt], the “reactivity of thrombin and plasmin on the S1 substrate (FIG. 1a)” value in assay [3] is recorded as “more susceptible for their respective enzyme”.
